The structures appear in SMILES notation. Marks after values point to notes of the source that are not given here.

The nature of the first data set: logP determination via retention times, calibrated with unbranched alkan-2-ones. The class given is physicochemical. To be noted: HPLC on reversed-phase C 18, EEC Directive 79/831 Annex V.A8; method **: 43° C., 0.1% aqueous phosphoric acid and acetonitrile, linear gradient 10% to 95% acetonitrile.
With `Fc1ccc(Nc2ncc(C(F)(F)F)c(NC3CC3)n2)cc1` [compound 498], the logP is 2.96**.

Staying with this data set, now noted: HPLC on reversed-phase C 18, EEC Directive 79/831 Annex V.A8; method *: 40° C., 0.1% aqueous formic acid and acetonitrile, linear gradient 10% to 95% acetonitrile.
On to `CCC(=O)Nc1cccc(Nc2ncc(Br)c(NCC3CC3)n2)c1` [compound 483], for which the logP is 1.66*. On the same count and under the same terms, the same measure for `O=C(c1ccc(Nc2ncc(Br)c(NCC3CC3)n2)cc1)N1CCOCC1` [compound 484]: 1.64*. On the same count and under the same terms, the same measure for `CN(C)S(=O)(=O)Oc1cccc(Nc2ncc(Br)c(NCC3CC3)n2)c1` [compound 485]: 2.51*. The same measure, in the same setting: the same measure for `CCOC(=O)Cc1ccc(Nc2ncc(Br)c(NCC3CC3)n2)cc1` [compound 486]: 2.18*; for `CC(=O)c1cc(Nc2ncc(Br)c(NCC3CC3)n2)ccc1Cl` [compound 487]: 2.67*; for `CCC(=O)c1cc(Nc2ncc(Br)c(NCC3CC3)n2)ccc1O` [compound 488]: 2.21*.

`CCOC(=O)Nc1ccc(Nc2ncc(Br)c(NCC3CC3)n2)cc1O` [compound 489]: the logP was 1.75*. Same read-out and setting: the same measure for `CN(C=O)c1ccc(Nc2ncc(Br)c(NCC3CC3)n2)cc1` [compound 490]: 1.63*.

Regarding `O=C(Nc1cccc(Nc2ncc(Br)c(NCC3CC3)n2)c1)c1ccccc1` [compound 492], the logP is 2.29*. As to `FC(F)C(F)(F)Oc1cccc(Nc2ncc(Br)c(NCC3CC3)n2)c1` [compound 493], the logP was 3.1*.

Regarding `CCC(=O)Nc1cc(Nc2ncc(Br)c(NCC3CC3)n2)ccc1O` [compound 494], the logP is on record as 1.97*. In the case of `O=C1COCCN1c1ccc(Nc2ncc(Cl)c(NC3CC3)n2)cc1` [compound 495], the logP is listed as 1.17*. Same read-out and setting: the same measure for `CSc1cccc(Nc2ncc(C)c(NC3CC3)n2)c1` [compound 497]: 1.48*. On to `Fc1ccc(Nc2ncc(Br)c(NC3CC3)n2)cc1` [compound 499], for which the logP is listed as 1.96*.

Consider `O=C1COCCN1c1ccc(Nc2ncc(Br)c(NC3CC3)n2)cc1` [compound 500], for which the logP is 1.29*. `Brc1cnc(Nc2ccc(-n3ccnc3)cc2)nc1NC1CC1` [compound 501]: the logP is 0.93*.

Take `C#Cc1cccc(Nc2ncc(Cl)c(NC3CC3)n2)c1` [compound 502]: the logP is 2.24*. The same measure, in the same setting: the same measure for `COc1cc(Nc2ncc(Cl)c(NCC3CC3)n2)ccc1NC(C)=O` [compound 503]: 1.53*; for `COC(=O)Cc1cccc(Nc2ncc(Cl)c(NCC3CC3)n2)c1` [compound 504]: 1.92*; for `CC(=O)Nc1ccc(Nc2ncc(Cl)c(NCC3CC3)n2)cc1Cl` [compound 505]: 1.68*. Same read-out and setting: to `CCN(C(C)=O)c1ccc(Nc2ncc(Cl)c(NCC3CC3)n2)cc1` [compound 506] belongs 1.73*; to `CC(=O)Nc1ccc(Nc2ncc(Cl)c(NCC3CC3)n2)cn1` [compound 507], 0.89*. Still for that read-out and setting: the same measure for `CCC(=O)Nc1cccc(Nc2ncc(Cl)c(NCC3CC3)n2)c1` [compound 508]: 1.61*. `CN(C)C(=O)c1ccc(Nc2ncc(Cl)c(NCC3CC3)n2)cc1` [compound 509]: the logP is reported as 1.59*. Take `CNC(=O)c1ccc(Nc2ncc(Cl)c(NCC3CC3)n2)cc1` [compound 510]: the logP is 1.44*. Same read-out and setting: the same measure for `CNC(=O)c1cccc(Nc2ncc(Cl)c(NCC3CC3)n2)c1` [compound 511]: 1.44*.

With `O=C1NC(=O)C(c2ccc(Nc3ncc(Cl)c(NCC4CC4)n3)cc2)N1` (stereo not shown) [compound 512], the logP is 1.27*.

Take `CCOC(=O)Nc1cccc(Nc2ncc(Cl)c(NCC3CC3)n2)c1` [compound 513]: the logP was 1.9*.

For the molecule `CNC(=O)Oc1cccc(Nc2ncc(Cl)c(NCC3CC3)n2)c1` [compound 514], the logP is 1.61*. Still for that read-out and setting: to `COC(=O)Nc1cccc(Nc2ncc(Cl)c(NCC3CC3)n2)c1` [compound 515] belongs 1.66*; to `O=C1Cc2cc(Nc3ncc(Cl)c(NCC4CC4)n3)ccc2N1` [compound 516], 1.31*; to `O=C1CCc2cc(Nc3ncc(Cl)c(NCC4CC4)n3)ccc2N1` [compound 517], 1.19*.

As to `CC(=O)N1CCc2cc(Nc3ncc(Cl)c(NCC4CC4)n3)ccc21` [compound 518], the logP is 1.59*. Same read-out and setting: to `CN(C)C(=O)c1cccc(Nc2ncc(Cl)c(NCC3CC3)n2)c1` [compound 519] belongs 1.58*. Still for that read-out and setting: the same measure for `O=C1CCCN1c1cccc(Nc2ncc(Cl)c(NCC3CC3)n2)c1` [compound 520]: 1.56*; for `CC(=O)N1CCc2ccc(Nc3ncc(Cl)c(NCC4CC4)n3)cc21` [compound 521]: 1.66*; for `CC(C)(C)OC(=O)Nc1ccc(Nc2ncc(Cl)c(NCC3CC3)n2)cc1` [compound 522]: 2.18*.

For the molecule `CN1CC(=O)N(c2ccc(Nc3ncc(Cl)c(NCC4CC4)n3)cc2)C1=O` [compound 523], the logP is reported as 1.53*.

For `CC(C)(C)OC(=O)Nc1cccc(Nc2ncc(Cl)c(NCC3CC3)n2)c1` [compound 524], the logP is 2.33*. `CN(C(=O)C(C)(C)C)c1ccc(Nc2ncc(Cl)c(NCC3CC3)n2)cc1` [compound 525]: the logP is given as 2.02*.

For the molecule `CC(C)C(=O)Nc1ccc(Nc2ncc(Cl)c(NCC3CC3)n2)cc1` [compound 526], the logP is reported as 1.73*. For the molecule `FC(F)C(F)(F)Oc1cccc(Nc2ncc(Cl)c(NCC3CC3)n2)c1` [compound 527], the logP is given as 2.95*. The same measure, in the same setting: the same measure for `CC1CC(C)CN(c2cccc(Nc3ncc(Cl)c(NC4CC4)n3)c2)C1` (stereo not shown) [compound 528]: 2.46*; for `CC1CC(C)CN(c2cccc(Nc3ncc(Br)c(NC4CC4)n3)c2)C1` (stereo not shown) [compound 529]: 2.63*.

`COC(=O)Nc1ccc(Nc2ncc(Cl)c(NC3CC3)n2)c(F)c1` [compound 530]: the logP is listed as 1.56*.

As to `CCCOc1cccc(Nc2ncc(Cl)c(NC3CC3)n2)c1` [compound 531], the logP is reported as 2.64*. The same measure, in the same setting: the same measure for `COc1cc(Nc2ncc(Br)c(NC3CC3)n2)ccc1Cl` [compound 532]: 2.70*; for `CC1COC(=O)N1c1cccc(Nc2ncc(Br)c(NC3CC3)n2)c1` (stereo not shown) [compound 533]: 1.68*. The same measure, in the same setting: the same measure for `FC(F)Oc1cccc(Nc2ncc(Cl)c(NC3CC3)n2)c1` [compound 534]: 2.51*.

Regarding `Clc1cnc(Nc2cccc(N3CCCCC3)c2)nc1NC1CC1` [compound 535], the logP was 1.45*. The same measure, in the same setting: to `O=C1CCCN1c1cc(Nc2ncc(Cl)c(NC3CC3)n2)ccc1F` [compound 536] belongs 1.53*; to `O=S(=O)(Cc1ccc(Nc2ncc(Cl)c(NC3CC3)n2)cc1)N1CCCCC1` [compound 537], 2.17*; to `FC(F)Oc1ccc(Nc2ncc(Cl)c(NCC3CC3)n2)cc1` [compound 538], 2.25*. Still for that read-out and setting: to `CCOC(=O)Cc1ccc(Nc2ncc(Cl)c(NCC3CC3)n2)cc1` [compound 539] belongs 2.09*; to `CC(=O)c1cc(Nc2ncc(Cl)c(NCC3CC3)n2)ccc1Cl` [compound 540], 2.51*; to `CCC(=O)c1cc(Nc2ncc(Cl)c(NCC3CC3)n2)ccc1O` [compound 541], 2.13*. For the molecule `CCOC(=O)Nc1ccc(Nc2ncc(Cl)c(NCC3CC3)n2)cc1O` [compound 542], the logP is given as 1.68*. Same read-out and setting: the same measure for `CCOC(=O)Nc1ccc(Nc2ncc(Cl)c(NCC3CC3)n2)cc1` [compound 543]: 1.8*; for `O=CNc1ccc(Nc2ncc(Cl)c(NCC3CC3)n2)cc1` [compound 544]: 1.17*. The same measure, in the same setting: to `CN(C=O)c1ccc(Nc2ncc(Cl)c(NCC3CC3)n2)cc1` [compound 545] belongs 1.56*; to `O=CNc1cccc(Nc2ncc(Cl)c(NCC3CC3)n2)c1` [compound 546], 1.46*; to `CSc1cc(Nc2ncc(Cl)c(NCC3CC3)n2)ccc1C` [compound 547], 2.45*. The same measure, in the same setting: the same measure for `CN(C)C(=O)Nc1ccc(Nc2ncc(Cl)c(NCC3CC3)n2)cc1` [compound 548]: 1.49*. For the molecule `Fc1ccc(Nc2ncc(Cl)c(NCC3CC3)n2)cc1` [compound 550], the logP is 1.97*. As for `CCCCC(=O)Oc1ccc(Nc2ncc(Cl)c(NCC3CC3)n2)cc1` [compound 551], the logP was 3.8*. In the case of `CC(=O)Nc1cc(Nc2ncc(Cl)c(NCC3CC3)n2)ccc1O` [compound 552], the logP is listed as 1.29*. The same measure, in the same setting: to `CC(=O)c1cc(Nc2ncc(Cl)c(NCC3CC3)n2)ccc1O` [compound 553] belongs 1.85*; to `Oc1ccc(Nc2ncc(Cl)c(NCC3CC3)n2)cc1F` [compound 554], 1.49*.

With `CC(C)(CCl)C(=O)Nc1ccc(Nc2ncc(Cl)c(NCC3CC3)n2)cc1` [compound 556], the logP is recorded as 2.02*. On the same count and under the same terms, to `O=C(Nc1cccc(Nc2ncc(Cl)c(NCC3CC3)n2)c1)c1ccccc1` [compound 557] belongs 2.21*. Still for that read-out and setting: the same measure for `Cc1cc(Nc2ncc(Cl)c(NCC3CC3)n2)ccc1O` [compound 558]: 1.51*. As to `FC(F)Sc1ccc(Nc2ncc(Cl)c(NCC3CC3)n2)cc1` [compound 559], the logP is reported as 2.91*. On the same count and under the same terms, the same measure for `OCc1cccc(Nc2ncc(Cl)c(NCC3CC3)n2)c1` [compound 560]: 1.47*; for `CC(C)(C)NC(=O)Cc1cccc(Nc2ncc(Cl)c(NCC3CC3)n2)c1` [compound 561]: 1.93*; for `CC(C)(C)NC(=O)Cc1cccc(Nc2ncc(Cl)c(NC3CC3)n2)c1` [compound 562]: 1.81*. Still for that read-out and setting: the same measure for `COc1cc(Nc2ncc(Br)c(NC3CC3)n2)cc(OC)c1` [compound 563]: 2.15*. On the same count and under the same terms, the same measure for `FC(F)(F)c1cnc(Nc2cccc(N3CCCC3)c2)nc1NC1CC1` [compound 564]: 3.55*.

As for `CC(=O)Cc1ccc(Nc2ncc(Br)c(NC3CC3)n2)cc1` [compound 565], the logP is reported as 1.58*.

The values are drawn from patent publication US20100081679A1, “DIAMINOPYRIMIDINES AS FUNGICIDES” (Bayer CropScience AG, priority 2007, published 2010).
